Test results published in patent publication US5200409A, “Composition and use of substituted 1,3-dithiolo-and 1,4-dithiinoquinoxalines as an antimicrobial” (The Dow Chemical Company, priority 1992, dated 1993).
Converted amounts (≈) assume the structure as drawn. Read-outs that look alike come from different tables or passages of the source.

How the values were obtained:
Fusarium oxysporum (Fo) = assay: Minimum inhibitory concentration (MIC) in malt yeast agar; assay type: cell-based, Fusarium oxysporum ATCC 48112; settings: malt yeast agar; 30° C.; 72 hours for fungi; read-out: Minimum Inhibitory Concentration, Fo
Description: (§1) The minimum inhibitory concentration (MIC) for the compounds listed in Table I is determined for 9 bacteria, using nutrient agar: and 7 yeast and fungi, using malt yeast agar. A one percent solution of the test compound is prepared in a mixture of acetone and water. Nutrient agar is prepared at pH 6.8, representing a neutral medium, and at pH 8.2, representing an alkaline medium. The nutrient agars are prepared by adding 23 g of nutrient agar to one-liter of deionized water. In addition, the alkaline medium is prepared by adjusting a 0.04M solution of N-[tris-(hydroxymethyl)methyl]-glycine buffered deionized water with concentrated sodium hydroxide to a pH of […]. Malt yeast agar is prepared by adding 3 g yeast extract and 45 g malt agar per liter of deionized water. The specific agar is dispensed in 30 ml aliquots into 25×200 mm test tubes, capped and autoclaved for 15 minutes at 115° C. The test tubes containing the agar are cooled in a water bath until the temperature of the agar is 48° C. Then, an appropriate amount of the one percent solution of the test compound is added (except in the controls where no compound is added) to the respective test tubes so that the final concentrations are 500, 250, 100, 50, 25, 10, 5, 2.5, 1.0 and zero parts per million of the test compound in the agar, thus having a known concentration of test compound dispersed therein. The contents of the test tubes are then transferred to respective petri plates. After drying for 24 hours, the petri plates containing nutrient agar are inoculated with bacteria and those containing malt yeast agar are inoculated with yeast and fungi.
(§2) The inoculation with the yeast and fungi is accomplished as follows. Cultures of yeast and fungi are incubated for seven days on malt yeast agar at 30° C. These cultures are used to prepare suspensions by the following procedure. A suspension of each organism is prepared by adding 10 ml of sterile saline and 10 microliters of octylphenoxy polyethoxy ethanol to the agar slant of yeast or fungi. The sterile saline/octylphenoxy polyethoxy ethanol solution is then agitated with a sterile swab to suspend the microorganism grown on the slant. Each resulting suspension is diluted into sterile saline (1 part suspension: 9 parts sterile saline). Aliquots of these dilutions are placed in individual wells of Steer's Replicator and petri plates inoculated as previously described. The petri plates are incubated at 30° C. and read after 48 hours for yeast and 72 hours for fungi.
(§3) Table II lists the bacteria, yeast and fungi used in the MIC test described above along with their respective American Type Culture Collection (ATCC) identification numbers.

Candida albicans (Ca) = assay: as above; assay type: cell-based, Candida albicans ATCC 10231; settings: malt yeast agar; 30° C.; 48 hours for yeast; read-out: Minimum Inhibitory Concentration, Ca
Description: as §1, §2, §3

Bacillus subtilis (Bs) = assay: Minimum inhibitory concentration (MIC) in nutrient agar; assay type: cell-based, Bacillus subtilis ATCC 8473; settings: 48 h
Description: as §1
(§4) The inoculation with bacteria is accomplished by using the following procedure. Twenty-four hour-cultures of each of the bacteria are prepared by incubating the respective bacteria in tubes containing nutrient broth for 24 hours at 30° C. in a shaker. Dilutions of each of the 24 hour-cultures are made so that nine separate suspensions (one for each of the nine test bacteria) are made, each containing 10^8 colony forming units (CFU) per ml of suspension of a particular bacteria. Aliquots of 0.3 ml of each of the bacterial suspensions are used to fill the individual wells of Steer's Replicator. For each microbial suspension, 0.3 ml was used to fill three wells (i.e., three wells of 0.3 ml each) so that for the nine different bacteria, 27 wells are filled. The Steer's Replicator is then used to inoculate both the neutral and alkaline pH nutrient agar petri plates.
(§5) The inoculated petri plates are incubated at 30° C. for 48 hours and then read to determine if the test compound which is incorporated into the agar prevented growth of the respective bacteria.
as §3

[1] = system: Staphylococcus aureus (Sa); assay: as above; assay type: cell-based, Staphylococcus aureus ATCC 6538
Description: as §1, §4, §5, §3

[2] = system: Klebsiella pneumoniae (Kp); assay: as above; assay type: cell-based, Klebsiella pneumoniae ATCC 8308
Description: as §1, §4, §5, §3

[3] = system: Saccharomyces cerevisiae (Sc); assay: Minimum inhibitory concentration (MIC) in malt yeast agar; assay type: cell-based, Saccharomyces cerevisiae ATCC 4105; settings: malt yeast agar, 30° C., 48 hours for yeast, read-out: Minimum Inhibitory Concentration, Sc
Description: as §1, §2, §3

[4] = system: Pseudomonas aeruginosa (Pa); assay: Minimum inhibitory concentration (MIC) in nutrient agar; assay type: cell-based, Pseudomonas aeruginosa ATCC 10145; settings: 48 hours
Description: as §1, §4, §5, §3

Proteus vulgaris (Pv) = assay: as above; assay type: cell-based, Proteus vulgaris ATCC 881; settings: 48 h
Description: as §1, §4, §5, §3

[5] = system: Pseudomonas aeruginosa (PRD-10); assay: as above; assay type: cell-based, Pseudomonas aeruginosa ATCC 15442; settings: 48 h
Description: as §1, §4, §5, §3

Aspergillus niger (An) = assay: Minimum inhibitory concentration (MIC) in malt yeast agar; assay type: cell-based, Aspergillus niger ATCC 16404; settings: malt yeast agar; 30° C.; 72 hours for fungi; read-out: Minimum Inhibitory Concentration, An
Description: as §1, §2, §3

Trichoderma viride (Tv) = assay: as above; assay type: cell-based, Trichoderma viride ATCC 8678; settings: malt yeast agar; 30° C.; 72 hours for fungi; read-out: Minimum Inhibitory Concentration, Tv
Description: as §1, §2, §3

[6] = system: Penicillium chrysogenum (Pc); assay: as above; assay type: cell-based, Penicillium chrysogenum ATCC 9480; settings: read-out: Minimum Inhibitory Concentration, Pc
Description: as §1, §2, §3

[7] = system: Salmonella choleraesuis (Sc); assay: Minimum inhibitory concentration (MIC) in nutrient agar; assay type: cell-based, Salmonella choleraesuis ATCC 10708; settings: Salmonella enterica, 48 h
Description: as §1, §4, §5, §3

[8] = system: Enterobacter aerogenes (Ea); assay: as above; assay type: cell-based, Enterobacter aerogenes ATCC 13048; settings: Klebsiella aerogenes, 48 h
Description: as §1, §4, §5, §3

[9] = system: Aureobasidium pullulan (Ap); assay: Minimum inhibitory concentration (MIC) in malt yeast agar; assay type: cell-based, Aureobasidium pullulan ATCC 16622; settings: read-out: Minimum Inhibitory Concentration, Ap
Description: as §1, §2, §3

Escherichia coli (Ec) = assay: Minimum inhibitory concentration (MIC) in nutrient agar; assay type: cell-based, Escherichia coli ATCC 11229; settings: 48 h
Description: as §1, §4, §5, §3

[10] = pH 6.8, read-out: Minimum Inhibitory Concentration, Bs
[11] = pH 8.2, read-out: Minimum Inhibitory Concentration, Bs
[12] = 48 h, pH 8.2, read-out: Minimum Inhibitory Concentration, Sa
[13] = pH 6.8, nutrient agar, 30° C., 48 hours, read-out: Minimum Inhibitory Concentration, Sa
[14] = 48 h, pH 8.2, read-out: Minimum Inhibitory Concentration, Kp
[15] = pH 6.8, nutrient agar, 30° C., 48 hours, read-out: Minimum Inhibitory Concentration, Kp
[16] = pH 6.8, read-out: Minimum Inhibitory Concentration, Pv
[17] = pH 8.2, read-out: Minimum Inhibitory Concentration, Pv
[18] = pH 6.8, read-out: Minimum Inhibitory Concentration, PRD
[19] = pH 8.2, read-out: Minimum Inhibitory Concentration, PRD
[20] = malt yeast agar, 30° C., 72 hours for fungi
[21] = pH 6.8, read-out: Minimum Inhibitory Concentration, Sc
[22] = pH 8.2, read-out: Minimum Inhibitory Concentration, Sc
[23] = pH 6.8, read-out: Minimum Inhibitory Concentration, Ea
[24] = pH 8.2, read-out: Minimum Inhibitory Concentration, Ea
[25] = malt yeast agar, 30° C., 48 hours for yeast and 72 hours for fungi
[26] = pH 6.8, read-out: Minimum Inhibitory Concentration, Ec
[27] = pH 8.2, read-out: Minimum Inhibitory Concentration, Ec

Compound	MIC (Fusarium oxysporum (Fo))	MIC (Candida albicans (Ca))	MIC (Bacillus subtilis (Bs); [10])	MIC (Bacillus subtilis (Bs); [11])	MIC [1, 12]	MIC [1, 13]	MIC [2, 14]	MIC [2, 15]	MIC [3]	MIC ([4]; pH 6.8, 30° C.)	MIC ([4]; pH 8.2, 30° C.)	MIC (Proteus vulgaris (Pv); [16])	MIC (Proteus vulgaris (Pv); [17])	MIC [5, 18]	MIC [5, 19]	MIC (Aspergillus niger (An))	MIC (Trichoderma viride (Tv))	MIC [7, 21]	MIC [7, 22]	MIC [8, 23]	further results
Cc1ccc2nc3c(nc2c1)SC(=C(C#N)C#N)S3 [N, 6-methyl-1,3-dithiolo-(4,5-b)-quinoxaline-2-ylidene-propanedinitrile]	> 500 µg/mL	> 500 µg/mL	> 500 µg/mL	> 500 µg/mL	> 500 µg/mL	> 500 µg/mL	> 500 µg/mL	> 500 µg/mL	> 500 µg/mL	> 500 µg/mL	> 500 µg/mL	> 500 µg/mL	> 500 µg/mL	> 500 µg/mL	> 500 µg/mL	500 µg/mL (≈ 1770 µM)	> 500 µg/mL	500 µg/mL (≈ 1770 µM)	> 500 µg/mL	> 500 µg/mL	MIC [6, 20]: 500 µg/mL (≈ 1770 µM); MIC [8, 24]: > 500 µg/mL; MIC [9, 25]: 500 µg/mL (≈ 1770 µM); MIC (Escherichia coli (Ec); [26]): > 500 µg/mL; MIC (Escherichia coli (Ec); [27]): > 500 µg/mL
N#CC(C#N)=C1Sc2nc3cc(Cl)c([N+](=O)[O-])cc3nc2S1 [Q, 6-chloro-7-nitro-1,3-dithiolo-(4,5-b)-quinoxaline-2-ylidene-propanedinitrile]	> 500 µg/mL	500 µg/mL (≈ 1440 µM)	> 500 µg/mL	> 500 µg/mL	> 500 µg/mL	> 500 µg/mL	> 500 µg/mL	> 500 µg/mL	500 µg/mL (≈ 1440 µM)	> 500 µg/mL	> 500 µg/mL	> 500 µg/mL	> 500 µg/mL	> 500 µg/mL	> 500 µg/mL	500 µg/mL (≈ 1440 µM)	> 500 µg/mL	> 500 µg/mL	> 500 µg/mL	> 500 µg/mL	MIC [6, 20]: 500 µg/mL (≈ 1440 µM); MIC [8, 24]: > 500 µg/mL; MIC [9]: 50 µg/mL (≈ 144 µM); MIC (Escherichia coli (Ec); [26]): > 500 µg/mL; MIC (Escherichia coli (Ec); [27]): > 500 µg/mL
Cc1cc2nc3c(nc2cc1[N+](=O)[O-])SC(=C(C#N)C#N)S3 [R, 6-nitro-7-methyl-1,3-dithiolo-(4,5-b)-quinoxaline-2-ylidene-propanedinitrile]	> 500 µg/mL	> 500 µg/mL	> 500 µg/mL	> 500 µg/mL	> 500 µg/mL	> 500 µg/mL	> 500 µg/mL	> 500 µg/mL	500 µg/mL (≈ 1530 µM)	> 500 µg/mL	> 500 µg/mL	> 500 µg/mL	> 500 µg/mL	> 500 µg/mL	> 500 µg/mL	100 µg/mL (≈ 305 µM)	> 500 µg/mL	> 500 µg/mL	> 500 µg/mL	> 500 µg/mL	MIC ([6]; 72 h): 50 µg/mL (≈ 153 µM); MIC [8, 24]: > 500 µg/mL; MIC [9, 25]: 500 µg/mL (≈ 1530 µM); MIC (Escherichia coli (Ec); [26]): > 500 µg/mL; MIC (Escherichia coli (Ec); [27]): > 500 µg/mL
N#CC(C#N)=C1Sc2nc3ccc(C(=O)c4ccccc4)cc3nc2S1 [W, 6-benzoyl-1,3-dithiolo-(4,5-b)-quinoxaline-2-ylidene-propanedinitrile]	> 500 µg/mL	> 500 µg/mL	> 500 µg/mL	> 500 µg/mL	> 500 µg/mL	> 500 µg/mL	> 500 µg/mL	> 500 µg/mL	> 500 µg/mL	> 500 µg/mL	> 500 µg/mL	> 500 µg/mL	> 500 µg/mL	> 500 µg/mL	> 500 µg/mL	> 500 µg/mL	> 500 µg/mL	> 500 µg/mL	> 500 µg/mL	> 500 µg/mL	MIC [6, 20]: > 500 µg/mL; MIC [8, 24]: > 500 µg/mL; MIC [9, 25]: 500 µg/mL (≈ 1340 µM); MIC (Escherichia coli (Ec); [26]): > 500 µg/mL; MIC (Escherichia coli (Ec); [27]): > 500 µg/mL
